Among the data in patent US20240217951A1, “PCSK9 INHIBITORS AND METHODS OF USE THEREOF” (AstraZeneca AB, priority 2022, published 2024) are IC50 and EC50 values, retold here.

Experiment [1] addresses T1, potassium ion channel hERG (human Ether-á-go-go-Related Gene) (Homo sapiens, UniProt Q12809).
T1 construct: expressed in transfected cells; host or cells: Chinese hamster ovary K1 (CHO)
Nature of the experiment: Assay 5 - hERG assay (SyncroPatch 384PE patch clamp, CHO cells). The class given is cell-based. Conditions: geometric mean; CHO cells over-expressing hERG; read-out: Assay 5 (hERG Hu CHO IF EPh CR-Syncro) GMean IC50. A digest of the protocol:
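Automated high-throughput patch clamp on CHO-K1 cells overexpressing hERG at room temperature, KF/KCl internal with escin, NMDG-containing external at pH 7.4. Six-point cumulative compound addition, 0.33% DMSO final; wells kept only with seal >30 MΩ, Z′ >0.4 and current >0.2 nA.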

Experiment [2] has as its target T2, PCSK9 (Homo sapiens, UniProt Q8NBP7, G670E/V474I). The experiment is described as follows: biochemical.
In experiment [3] the target is T2, PCSK9. The experiment is described as follows: Assay 3 - PCSK9 LDL-C uptake assay in HepG2 cells. The class given is cell-based. The arrangement: TEV cleavage site (C); His6 (C); host or cells: added to HepG2 cells (ATCC #HB-8065). Conditions: 125 nM PCSK9, pHrodo Red-LDL, read-out: Assay 3 LDL uptake potency. In a few lines:
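HepG2 cells seeded 24 h, then given compound (half-log series, top 10 μM) plus PCSK9 at 125 nM final for 24 h at 37 °C. pHrodo Red-LDL (6 μg/mL) added; uptake imaged at 4 h and 24 h. Signal normalized between DMSO and 100 nM evolocumab controls, four-parameter logistic fit.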

Molecules are shown by their SMILES.

T2 sequence (Q8NBP7 with tags, fused parts or gaps V474I/G670E): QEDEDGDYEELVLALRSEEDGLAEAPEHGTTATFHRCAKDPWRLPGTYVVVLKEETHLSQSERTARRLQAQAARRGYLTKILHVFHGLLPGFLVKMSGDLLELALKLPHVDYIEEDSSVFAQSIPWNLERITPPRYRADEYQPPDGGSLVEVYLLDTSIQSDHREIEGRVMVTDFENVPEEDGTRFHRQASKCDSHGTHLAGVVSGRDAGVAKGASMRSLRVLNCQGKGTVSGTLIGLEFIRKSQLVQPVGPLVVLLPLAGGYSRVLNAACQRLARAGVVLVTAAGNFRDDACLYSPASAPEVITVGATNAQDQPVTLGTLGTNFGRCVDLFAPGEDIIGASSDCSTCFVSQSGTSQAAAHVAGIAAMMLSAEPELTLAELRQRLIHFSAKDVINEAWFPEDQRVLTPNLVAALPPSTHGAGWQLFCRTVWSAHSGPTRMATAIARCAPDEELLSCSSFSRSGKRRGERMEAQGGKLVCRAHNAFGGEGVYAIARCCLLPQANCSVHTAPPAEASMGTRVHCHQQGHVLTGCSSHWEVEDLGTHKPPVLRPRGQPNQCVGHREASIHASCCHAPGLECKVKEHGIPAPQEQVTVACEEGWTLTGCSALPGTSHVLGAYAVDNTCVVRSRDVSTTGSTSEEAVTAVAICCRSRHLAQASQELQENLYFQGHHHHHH
T1 sequence (Q12809 whole entry): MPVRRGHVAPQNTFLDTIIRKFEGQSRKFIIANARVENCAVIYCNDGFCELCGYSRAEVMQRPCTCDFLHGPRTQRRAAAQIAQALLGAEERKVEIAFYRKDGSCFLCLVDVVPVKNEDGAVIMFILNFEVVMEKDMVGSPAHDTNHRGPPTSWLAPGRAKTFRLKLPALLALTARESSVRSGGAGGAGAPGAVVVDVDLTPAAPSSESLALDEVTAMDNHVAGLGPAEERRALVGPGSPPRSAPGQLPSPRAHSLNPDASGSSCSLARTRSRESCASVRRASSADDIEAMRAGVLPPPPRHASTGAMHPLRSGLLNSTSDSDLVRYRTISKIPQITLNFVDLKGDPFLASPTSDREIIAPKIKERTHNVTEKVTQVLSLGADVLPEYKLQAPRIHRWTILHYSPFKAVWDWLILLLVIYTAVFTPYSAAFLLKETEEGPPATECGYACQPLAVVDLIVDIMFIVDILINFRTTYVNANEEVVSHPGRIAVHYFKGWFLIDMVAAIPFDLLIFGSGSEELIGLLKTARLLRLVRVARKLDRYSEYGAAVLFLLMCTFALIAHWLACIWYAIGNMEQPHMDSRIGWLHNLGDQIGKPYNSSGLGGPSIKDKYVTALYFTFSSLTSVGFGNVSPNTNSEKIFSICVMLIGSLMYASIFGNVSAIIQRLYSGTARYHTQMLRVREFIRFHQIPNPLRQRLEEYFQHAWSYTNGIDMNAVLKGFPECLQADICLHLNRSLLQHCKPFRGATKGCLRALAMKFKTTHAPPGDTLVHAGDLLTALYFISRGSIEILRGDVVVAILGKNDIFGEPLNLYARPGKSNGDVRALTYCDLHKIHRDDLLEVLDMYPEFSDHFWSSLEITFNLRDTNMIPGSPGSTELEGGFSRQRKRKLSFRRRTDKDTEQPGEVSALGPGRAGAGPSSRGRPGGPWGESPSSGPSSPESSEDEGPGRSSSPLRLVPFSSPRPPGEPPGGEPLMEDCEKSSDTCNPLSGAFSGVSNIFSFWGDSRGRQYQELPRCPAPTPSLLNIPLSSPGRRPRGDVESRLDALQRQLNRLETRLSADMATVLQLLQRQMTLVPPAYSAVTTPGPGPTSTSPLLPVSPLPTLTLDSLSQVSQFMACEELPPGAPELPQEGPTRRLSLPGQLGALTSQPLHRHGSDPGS

The IC50 is the concentration at which inhibition is half-maximal. Turning to `Cc1cccn(-c2ccc(N[C@H]3CC[C@H](Nc4cnc(Cl)cn4)C3)nc2)c1=O` [Example 24, 6′-(((1S,3S)-3-((5-Chloropyrazin-2-yl)amino)cyclopentyl)amino)-3-methyl-2H-[1,3′-bipyridin]-2-one], the IC50 in experiment [1] was determined as 20500 nM; on PCSK9 [2] it was 4.3 nM. For the same compound, on PCSK9 [3], the EC50 was 400 nM.
On to `Cn1c(=O)n(-c2ccc(N[C@H]3CC[C@H](Nc4cnc(Cl)cn4)C3)nc2)c2ccccc21` [Example 27, 1-(6-(((1S,3S)-3-((5-Chloropyrazin-2-yl)amino)cyclopentyl)amino)pyridin-3-yl)-3-methyl-1,3-dihydro-2H-benzo[d]imidazol-2-one], for which the IC50 came to 6350 nM in experiment [1] and 1.7 nM on PCSK9 [2]. Further, the EC50 at PCSK9 [3] worked out at 100 nM.
Regarding `O=c1ccc(-c2ccc(F)cc2)cn1-c1ccc(N[C@H]2CC[C@H](Nc3cnc(Cl)cn3)C2)nc1` [Example 32, 6′-(((1S,3S)-3-((5-Chloropyrazin-2-yl)amino)cyclopentyl)amino)-5-(4-fluorophenyl)-2H-[1,3′-bipyridin]-2-one], the IC50 in experiment [1] was determined as 3500 nM; against PCSK9 [2], 7.9 nM. Moreover, the EC50 at PCSK9 [3] turned out to be 200 nM.
Regarding `O=C(O)c1ccc(=O)n(-c2ccc(N[C@H]3CC[C@H](Nc4cnc(Cl)cn4)C3)nc2)c1` [Example 33, 6′-(((1S,3S)-3-((5-Chloropyrazin-2-yl)amino)cyclopentyl)amino)-2-oxo-2H-[1,3′-bipyridine]-5-carboxylic acid], the values for the IC50 (in experiment [1]; on PCSK9 [2]) were over 40000 nM and 12 nM, respectively. The EC50 at PCSK9 [3] is 100 nM.
Turning to `O=c1ccc2ccccc2n1-c1ccc(N[C@H]2CC[C@H](Nc3cnc(Cl)cn3)C2)nc1` [Example 35, 1-(6-(((1S,3S)-3-((5-Chloropyrazin-2-yl)amino)cyclopentyl)amino)pyridin-3-yl)quinolin-2 (1H)-one], the results for the IC50 (in experiment [1]; on PCSK9 [2]) were 4700 nM and 2 nM, respectively. Also, at PCSK9 [3], the EC50 stood at 100 nM.
For the compound `COc1cccn(-c2ccc(N[C@H]3CC[C@H](Nc4cnc(C)cn4)C3)nc2)c1=O` [Example 36, 3-Methoxy-6′-(((1S,3S)-3-((5-methylpyrazin-2-yl)amino)cyclopentyl)amino)-2H-[1,3′-bipyridin]-2-one], the IC50 in experiment [1] is over 40000 nM; at PCSK9 [2], 4.1 nM. Also, the EC50 at PCSK9 [3] came to 100 nM.
As to `Cc1cnc(N[C@H]2CC[C@H](Nc3ccc(-n4c(=O)ccc5cccnc54)cn3)C2)cn1` [Example 37, 1-(6-(((1S,3S)-3-((5-Methylpyrazin-2-yl)amino)cyclopentyl)amino)pyridin-3-yl)-1,8-naphthyridin-2(1 H)-one], the IC50 in experiment [1] was over 40000 nM; against PCSK9 [2] it was 6.5 nM. Moreover, the EC50 at PCSK9 [3] was found to be 200 nM.
On to `Cc1cnc(N[C@H]2CC[C@H](Nc3ccc(-n4c(=O)n(C)c5cccnc54)cn3)C2)cn1` [Example 42, 1-Methyl-3-(6-(((1S,3S)-3-((5-methylpyrazin-2-yl)amino)cyclopentyl)amino)pyridin-3-yl)-1,3-dihydro-2H-imidazo[4,5-b]pyridin-2-one], for which the IC50 in experiment [1] was over 40000 nM; on PCSK9 [2], 5.8 nM. Also, on PCSK9 [3], the EC50 worked out at 200 nM.
Turning to `Cc1cnc(N[C@H]2CC[C@H](Nc3ccc(-n4cccc(C)c4=O)cn3)C2)cn1` [Example 44, 3-Methyl-6′-(((1S,3S)-3-((5-methylpyrazin-2-yl)amino)cyclopentyl)amino)-2H-[1,3′-bipyridin]-2-one], the results for the IC50 (in experiment [1]; on PCSK9 [2]) were over 40000 nM and 5.5 nM, respectively. The EC50 on PCSK9 [3] was 300 nM.
As to `Cc1cnc(N[C@H]2CC[C@H](Nc3ccc(-n4c(=O)n(C)c5ccccc54)cn3)C2)cn1` [Example 45, 1-Methyl-3-(6-(((1S,3S)-3-((5-methylpyrazin-2-yl)amino)cyclopentyl)amino)pyridin-3-yl)-1,3-dihydro-2H-benzo[d]imidazol-2-one], the IC50 in experiment [1] came out at 23100 nM; on PCSK9 [2], 1.5 nM. Also, the EC50 at PCSK9 [3] was found to be 200 nM.
For the compound `Cc1cnc(N[C@H]2CC[C@H](Nc3ccc(-n4c(=O)[nH]c5ccccc54)cn3)C2)cn1` [Example 46, 1-(6-(((1S,3S)-3-((5-Methylpyrazin-2-yl)amino)cyclopentyl)amino)pyridin-3-yl)-1,3-dihydro-2H-benzo[d]imidazol-2-one], the IC50 is 33000 nM in experiment [1] and 3 nM on PCSK9 [2]. In addition, the EC50 on PCSK9 [3] was 700 nM.
As to `Cc1cnc(N[C@H]2CC[C@H](Nc3ccc(-n4cccc(Cl)c4=O)cn3)C2)cn1` [Example 47, 3-Chloro-6′-(((1S,3S)-3-((5-methylpyrazin-2-yl)amino)cyclopentyl)amino)-2H-[1,3′-bipyridin]-2-one], the IC50 in experiment [1] was over 40000 nM; at PCSK9 [2] it was 2.1 nM. The EC50 on PCSK9 [3] is 100 nM.
As to `Cn1c(=O)n(-c2ccc(N[C@H]3CC[C@H](Nc4cnc(OC(F)F)cn4)C3)nc2)c2ccccc21` [Example 82, 1-(6-(((1S,3S)-3-((5-(Difluoromethoxy)pyrazin-2-yl)amino)cyclopentyl)amino)pyridin-3-yl)-3-methyl-1,3-dihydro-2H-benzo[d]imidazol-2-one], the IC50 turned out to be 5500 nM in experiment [1] and 2.5 nM against PCSK9 [2]. For the same compound, at PCSK9 [3], the EC50 stood at 200 nM.
In the case of `COc1cccn(-c2ccc(N[C@H]3CC[C@H](Nc4cnc(OC(F)F)cn4)C3)nc2)c1=O` [Example 94, 6′-(((1S,3S)-3-((5-(Difluoromethoxy)pyrazin-2-yl)amino)cyclopentyl)amino)-3-methoxy-2H-[1,3′-bipyridin]-2-one], the results for the IC50 (in experiment [1]; at PCSK9 [2]) were 17500 nM and 7.7 nM, respectively. Besides, the EC50 on PCSK9 [3] is 300 nM.
In the same order, the values of `Cc1cnc(N[C@H]2CC[C@H](Nc3ccc(-n4cccc(C#N)c4=O)cn3)C2)cn1` [Example 103, 6′-(((1S,3S)-3-((5-Methylpyrazin-2-yl)amino)cyclopentyl)amino)-2-oxo-2H-[1,3′-bipyridine]-3-carbonitrile] are over 40100 nM, 5.7 nM and 200 nM.
Take `COc1cccn(-c2ccc(N[C@H]3CC[C@H](Nc4cnc(C5CC5)cn4)C3)nc2)c1=O` [Example 106, 6′-(((1S,3S)-3-((5-Cyclopropylpyrazin-2-yl)amino)cyclopentyl)amino)-3-methoxy-2H-[1,3′-bipyridin]-2-one]: the results for the IC50 (in experiment [1]; against PCSK9 [2]) were over 40000 nM and 4.5 nM, respectively. Moreover, on PCSK9 [3], the EC50 is 200 nM.
Turning to `COc1ccnn(-c2ccc(N[C@H]3CC[C@H](Nc4cnc(C)cn4)C3)nc2)c1=O` [Example 226, 4-Methoxy-2-(6-(((1S,3S)-3-((5-methylpyrazin-2-yl)amino)cyclopentyl)amino)pyridin-3-yl)pyridazin-3 (2H)-one], the figures for the IC50 (in experiment [1]; against PCSK9 [2]) were over 40100 nM and 4 nM, respectively. Also, at PCSK9 [3], the EC50 worked out at 200 nM.
